{"source": "paper PMC8070173", "about": "“Phenelzine and Amoxapine Inhibit Tyramine and d-Glucuronic Acid Catabolism in Clinically Significant Salmonella in A Serotype-Independent Manner” (Pathogens, 2021)", "target": "T1, β-glucuronidase (GUS) (Escherichia coli, UniProt P05804)", "T1 construct": "gene uidA; purified GUS encoded by E. coli (G8420-25KU, Sigma-Aldrich)", "T1 sequence (P05804 whole entry)": "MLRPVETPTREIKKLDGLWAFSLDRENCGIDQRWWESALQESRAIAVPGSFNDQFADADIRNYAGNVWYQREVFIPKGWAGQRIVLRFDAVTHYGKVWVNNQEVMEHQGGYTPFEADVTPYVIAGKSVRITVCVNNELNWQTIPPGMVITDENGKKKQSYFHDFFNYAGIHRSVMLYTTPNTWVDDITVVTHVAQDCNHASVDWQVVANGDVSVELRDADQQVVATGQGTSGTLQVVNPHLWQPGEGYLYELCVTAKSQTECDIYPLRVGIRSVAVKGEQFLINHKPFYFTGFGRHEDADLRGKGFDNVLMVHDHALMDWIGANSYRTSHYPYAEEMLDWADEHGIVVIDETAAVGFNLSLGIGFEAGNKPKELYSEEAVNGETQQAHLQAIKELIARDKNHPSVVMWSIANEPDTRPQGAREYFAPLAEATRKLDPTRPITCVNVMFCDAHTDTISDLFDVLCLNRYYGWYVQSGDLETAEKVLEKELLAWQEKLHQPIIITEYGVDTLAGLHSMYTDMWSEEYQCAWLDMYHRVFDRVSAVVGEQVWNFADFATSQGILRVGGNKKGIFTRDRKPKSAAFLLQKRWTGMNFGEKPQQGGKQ", "experiment": "colorimetric PNPG hydrolysis (p-nitrophenol release) with purified enzyme; complete inhibition at […]", "format": "biochemical", "data": [{"smiles": "Clc1ccc2c(c1)C(N1CCNCC1)=Nc1ccccc1O2", "note": "[amoxapine]", "values": [{"measurement": "colorimetric PNPG hydrolysis (p-nitrophenol release) with purified enzyme; compl", "result": 50, "unit": "µM"}]}]}
